The IC50 is the midpoint of a concentration-inhibition curve.

The structures appear in SMILES notation. Where two headings read alike, the source gives them in different places.

In one test the test system is JAK2. Kind of test: JAK2 phosphorylation western blot assay. Particulars: 10 microM, HEL or K562 cells (table does not say which). The class given is cell-based, human. On the procedure:
(§1) The Human Erythroleukemia cell line HEL and the human Chronic Myeloid Leukemia cell line K562 were cultured in RPM I 1640 medium containing 10% fetal bovine serum (FBS) and 50 U/ml penicillin/50 U/ml streptomycin at 37° C. in a 5% CO2 humidified atmosphere to a density of 300.000 viable cells/mL in presence of WP1066 (positive control of phosphorylation inhibition) (Verstovsek et al., 2008) or CM-363 at concentrations of 1, 5 and 10 μM. Cell culture reagents were all obtained from BioWhittaker® (Lonza, Verniers, Belgium). Cell growth and viability was determined by propidium iodide (fluorescent dye) exclusion method using the Accuchip 4× Counting Kit and the ADAM automatic cell counter (Digital-Bio, NanoEntek, Ic., Washington St, Mass., USA).As a control of unspecific phosphorylation, some cells in each experiment were exposed to vehicle (negative control of phosphorylation inhibition) (0.1% DMSO).
(§2) For total protein extraction, cells were scraped with RIPA 1× lysis buffer (25 mM Tris-HCl pH 7.6, 150 mM NaCl, 1% NP-40, 1% sodium deoxycholate, 0.1% SDS, no. 89900, Thermo Scientific, Rockford, Ill., USA) supplemented with 1× protease and 1× phosphatase inhibitor cocktails (100× Halt™ Protease Inhibitor Cocktail, no. 87786 and 100× Halt Phosphatase Inhibitor Cocktail, no. 78420, both from Thermo Scientific, Rockford, Ill., USA). An aliquot of each extract was preserved for protein quantification by bicinchoninic acid assay (Pierce® BCA Protein Assay Kit, no. 23225, Thermo Scientific, Rockford, Ill., USA).
(§3) Proteins were solubilized in sample buffer containing 0.0625 M Tris-HCl, pH 6.8, 2.3% (wt/vol) SDS, 10% (vol/vol) glycerol, 5% (vol/vol) f3-mercaptoethanol, and 0.001% (wt/vol) bromophenol blue and boiled at 95° C. for 5 min. Equal amounts (50 μg) of each sample were electrophoresed on 8-10% sodium dodecyl sulfate-polyacrylamide gel electrophoresis (SDS-PAGE) and transferred to nitrocellulose membranes (iBlot® Gel Transfer Stacks, Nitrocellulose, no. IB4010-02, Invitrogen, Barcelona, Spain) as described previously (Fernandez, L, et al., Endocrinology, 13, 1815-1824, 1998; B. Guerra et al., J. Neurochem, 91, 99-109, 2004; B. Guerra et al., J. Appl. Physiol., 102, 1786-1792, 2007; B. Guerra et al., J. Appl. Physiol., 111, 715-725, 2011). The nitrocellulose membranes were then removed from the iBlot® Dry GelTransfer Device (no. IB1001EU, Invitrogen, Barcelona, Spain) and placed in a Ponceau S staining solution (0.5% Ponceau S and 1% glacial acetic acid in water) to verify equal loading of protein in the control and treated samples. After the membranes were stained for 5 min, they were rinsed for 2 min and examined. Equal loading of protein was verified, and the membranes were rinsed for an additional 10 min and immunoscreened. Membranes were blocked with 5% blotting grade blocker nonfat dry milk in Tris Buffered Saline with 0.05% Tween 20 (TBST; blotto-blocking buffer) for at least […]) at room temperature. They were washed thrice in TBS with 0.1% Tween 20 (TBST-0.1). Next, the membranes were incubated over night at 4° C. with the appropriate anti-phospho-antibodies (described below) all diluted (1:1000) in 1% bovine serum albumin (BSA)-1% blotto in TBST (BSA-blotto blocking buffer). […] Membranes were stripped of bound antibodies by incubation in stripping buffer (Restore™ Western Blot Stripping Buffer, no. 21059, Thermo Scientific, Rockford, Ill., USA) at room temperature for 30 min with agitation. Membranes were washed for 3×10 min in TBST-0.1, blocked with blotto-blocking buffer for at least 1 h and re-probed with the corresponding anti-total kinase antibodies (described below) all diluted (1:1000) in blotto-blocking buffer. […]
For orientation: Immunoblotting shows a protein as a band on a membrane.

The test system of test [1] is STAT5 transcription (pSPI-GLE1-luc) in HEK-GHR cells. Briefly: HEK-GHR STAT5 transcription assay (luciferase reporter, rhGH stimulated). It counts as cell-based, human. Particulars: compound 45 minutes before 50 nM rhGH, six hours, read-out: Activity (IC50, reduction of luciferase activity). An excerpt: Plasmids: The full-length GHR was subcloned into pcDNA1/ampicillin (Invitrogen) as described previously (Ross R J, Esposito N, Shen X Y, et al., Mol Endocrinol 1997, 11:265-73). The pSPI-GLE1 (serine protease inhibitor 2.1 GAS-like element 1)-luc reporter construct was generated by subcloning the Stat5-binding element from serine protease inhibitor gene together with a minimal thymidine kinase promoter into the pGL2 plasmid (Promega), which contains the firefly luciferase cDNA (Wood T J, Sliva D, Lobie P E, et al. J Biol Chem 1995, 270:9448-53).
Cell culture: HEK-GHR cell line was maintained in Dulbecco's Modified Eagle Medium (DMEM)/F12 supplemented with 10% fetal bovine serum (FBS) and 50 U/ml penicillin/50 U/ml streptomycin. The cells were maintained in a humidified incubator with 5% CO2 at 37° C. Cell culture reagents were obtained from PAA laboratories. The HEK-GHR cell line is a stable clone generated and kindly donated by Prof. Richard Ross (Clinical Sciences, Northern General Hospital, Sheffield, UK). Briefly, HEK-GHR cell line was generated in HEK 293 cells (human kidney embryonal cell line) by transfection with the calcium phosphate procedure of the GHR plasmid with pcDNA3/Neo (Invitrogen). Selection was made using G418 (400 ug/ml, Sigma) (Maamra M, Finidori J, Von Laue S, et al., J Biol Chem 1999, 274(21):14791-8).
Luciferase reporter assay: Transcription assays were performed in HEK-GHR. The HEK-GHR cells were co-transfected with Stat5 luciferase (pSPI-GLE1-luc) reporter vector together with a plasmid constitutively expressing beta-galactosidase by using Metafectene Pro as described by the manufacturer (Biontex Laboratories GmbH, Munich, Germany). Following transfection, HEK-GHR cells were serum-starved for 20 h. Cells were then treated with vehicle (0.1% DMSO) or the indicated compound for 45 minutes prior to the addition of 50 nM recombinant human Growth Hormone (rhGH) (Norditropin, Novo Nordisk) to the medium. Six hours following rhGH addition, cells were harvested with Passive Lysis Buffer (Promega), and levels of luciferase were measured using Luciferase Assay System as described by the manufacturer (Promega). The Galacto-Light Plus System (Applied Biosystems) was used to measure beta-galactosidase activity.
Statistical analysis. The concentration of drug that provokes 50% reduction of luciferase activity (IC50) was determined by using non-linear regression analysis and data were fitted to a log concentration vs normalized response curve in GraphPad software v5 (San Diego, Calif.).

In test [2] the test system is STAT5. Kind of test: STAT5 phosphorylation western blot assay. The class given is cell-based, human. Particulars: 10 microM, HEL or K562 cells (table does not say which). On the procedure: as §1, §2, §3
Test [3] relates to K562 cells. Briefly: K562-based MTT cell viability assay. Also noted: species or system human. Particulars: 48 h, read-out: Activity (IC50, reduction of cell viability). On the procedure:
(§4) Cell viability was assayed by measuring the mitochondrial reduction of the tetrazolium salt 3-(4,5-methyltiazol-2yl)-2,5diphenyl-tetrazolium bromide] (MTT) (Applichen; A2231,0010) (Mosmann T. J Immunol Methods. 1983 16; 65(1-2):55-63; Chuan Y-C et al 2010. Oncogene. 29 (10), 1531-1542. Cells were seeded in 96-well plates in medium supplemented with 10% FBS (Lonza Cat. No: 14-502F), 2 mM L-Glut (Lonza Cat. No: BE17-605E) and 100 U/ml PEST (Lonza Cat. No: DE17-605E) at a cell density of 5000-20000 cells/well. Cells were seeded at a density according to their exponential growth phase. Vehicle (0.05% DMSO) or drug were added to culture medium at the indicated concentrations (10 to 0.01 microM) during 48 h. Then, MTT (0.3 mg/ml) was added to cells following by incubation for 2-4 h at 37° C. in the dark. The medium was then discarded and the formazan precipitate was solubilized by addition of 20% SDS (Sigma; L-5750) in 0.02N HCl (Panreac; 131020.1611) for 12-16 h. The optical density was measured at 595 nm with the iMark Microplate Reader (BioRad, USA). Data was expressed as percent growth above the level in controls and the results in figures were plotted as means±SEM of each test point from 3 replicates.
(§5) Statistical analysis. The concentration of drug that provokes 50% reduction of cell viability (IC50) was determined by using non-linear regression analysis and data were fitted to a log concentration vs normalized response curve in GraphPad software v5 (San Diego, Calif.).
For orientation: Tetrazolium assays rely on reduction of a dye to a coloured formazan, in cell work by metabolically active cells.

Another test relates to HEL cells. Kind of test: HEL-based MTT cell viability assay. More on the design: species or system human. Particulars: 48 h, read-out: Activity (IC50, reduction of cell viability). On the procedure: as §4, §5
In test [4] the test system is K562 cells. The settings on record: cited from earlier work.
Test [5] has as its system STAT5. Particulars: K562 cells, 30-100 μM; cited from earlier work.

As for `CC1(C)CC(=O)C2=C(C1)OC1=C(C(=O)c3ccccc3C1=O)C2c1ccc(C#N)cc1` (stereo not drawn) [Compound 3, 4-(3,3-dimethyl-1,6,11-trioxo-2,3,4,6,11,12-hexahydro-1H-benzo[b]xanthen-12-yl)benzonitrile], the “Activity (inhibition of JAK2 phosphorylation)” value in the test on JAK2 is given as “++ (++represents an inhibition at 10 microM > 50%)”. Moreover, the IC50 (in test [1] (Homo sapiens); with K562 cells [3] (Homo sapiens); in the test with HEL cells (Homo sapiens)) was < 1000 nM in each case. Moreover, the “Activity (inhibition of STAT5 phosphorylation)” value in the test with STAT5 [2] is on record as “+++ (+++represents an inhibition at 10 microM > 75%)”.

Consider `CC1(C)CC(=O)C2=C(C1)NC1=C(C(=O)c3ccncc3C1=O)C2c1ccccc1` (stereo not drawn) [Compound 13], for which, in the test with JAK2, the “Activity (inhibition of JAK2 phosphorylation)” value is “++ (++represents an inhibition at 10 microM > 50%)”. The results for the IC50 (in test [1]; with K562 cells [3]; in the test on HEL cells) were < 5000 nM, < 3000 nM and < 3000 nM, respectively. In addition, the “Activity (inhibition of STAT5 phosphorylation)” value with STAT5 [2] was “+++ (+++represents an inhibition at 10 microM > 75%)”.

On to `COc1cc2ncnc(Nc3ccc(O)cc3)c2cc1OC` [WHI-P131], for which the “cell cycle phases in flow cytometry experiments” value with K562 cells [4] is “dose-dependent decrease in G1 and S phases and an increase in G2/M phases”. The “tyrosine phosphorylation of STAT5” value in the test on STAT5 [5] is “caused a reduction in tyrosine phosphorylation of STAT5”.
